Experiment [1] concerns the target T1, Bromodomain-containing protein 4 [353-454] (Homo sapiens, UniProt O60885).
T1 construct: 353-454
As to the kind of experiment: Bromodomain Assay. The procedure: (§1) The liganded beads were blocked with excess biotin and washed with blocking buffer (SeaBlock (Pierce), 1% BSA (bovine serum albumin), 0.05% Tween 20, 1 mM DTT (dithiothreitol)) to remove unbound ligand and to reduce non-specific phage binding. […] Test compounds were prepared as 1000× stocks in 100% DMSO and subsequently diluted 1:10 in monoethylene glycol (MEG) to create stocks at 100× the screening concentration (resulting stock solution is 10% DMSO/90% MEG). The compounds were then diluted directly into the assays such that the final concentration of DMSO and MEG were 0.1% and 0.9%, respectively. All reactions were performed in polystyrene 96-well plates in a final volume of 0.135 ml. […] The bromodomain concentration in the eluates was measured by qPCR (quantitative real-time polymerase chain reaction).

Experiment [2] has as its target T2, Bromodomain-containing protein 4 [58-164] (Homo sapiens, UniProt O60885).
T2 construct: 58-164
As to the kind of experiment: Bromodomain Assay. The procedure:
as §1

For experiment [3], the target named is cGMP-inhibited 3',5'-cyclic phosphodiesterase 3A (Homo sapiens, UniProt Q14432). As to the kind of experiment: Radiometric PDE3A Assay. As for the experimental part: Partially purified human recombinant phosphodiesterase (PDE3A) was obtained by cloning cDNA and expressing in S. frugiperda insect cells using a baculovirus expression system. Cells were harvested from culture by centrifuging at 400×g for 5 minutes. Cell pellet was resuspended in 20 ml of RIPA Buffer (150 mM NaCl, 10 mM Tris, 0.1% NP-40, pH8.3), 4 ml/200 ml of culture, plus protease inhibitors (100 μl/10 ml) and incubated on ice for 10-20 minutes then spun at 3500×g for 10 minutes at 4° C. Supernatant was kept and the pellet thrown away. Tritium-labeled cyclic AMP was hydrolysed to 5′-AMP by PDE3A. The 5′-AMP was then further hydrolysed to adenosine by nucleotidase in snake venom. An anion-exchange resin binds all charged nucleotides and leaves [3H]adenosine as the only labeled compound to be counted by liquid scintillation. The radiometric assay method is a modification of the two-step method of Thompson and Appleman [Biochemistry 10; 311-316; 1971], adapted for a 96 well plate format. 50 μl of diluted PDE3A was incubated with 50 μl of [3H]-CAMP (specific activity 25 Ci/mmol) and 11 μl of 50% DMSO (or compound dilution) for 20 minutes at 30° C. […] 50 μl of supernatant was removed and added to 200 μl of MicroScint-20 in white plates (Greiner 96-well Optiplate) and shaken for 30 minutes before reading on Perkin Elmer TopCount Scintillation Counter.
Sequence of cGMP-inhibited 3',5'-cyclic phosphodiesterase 3A (Q14432 whole entry): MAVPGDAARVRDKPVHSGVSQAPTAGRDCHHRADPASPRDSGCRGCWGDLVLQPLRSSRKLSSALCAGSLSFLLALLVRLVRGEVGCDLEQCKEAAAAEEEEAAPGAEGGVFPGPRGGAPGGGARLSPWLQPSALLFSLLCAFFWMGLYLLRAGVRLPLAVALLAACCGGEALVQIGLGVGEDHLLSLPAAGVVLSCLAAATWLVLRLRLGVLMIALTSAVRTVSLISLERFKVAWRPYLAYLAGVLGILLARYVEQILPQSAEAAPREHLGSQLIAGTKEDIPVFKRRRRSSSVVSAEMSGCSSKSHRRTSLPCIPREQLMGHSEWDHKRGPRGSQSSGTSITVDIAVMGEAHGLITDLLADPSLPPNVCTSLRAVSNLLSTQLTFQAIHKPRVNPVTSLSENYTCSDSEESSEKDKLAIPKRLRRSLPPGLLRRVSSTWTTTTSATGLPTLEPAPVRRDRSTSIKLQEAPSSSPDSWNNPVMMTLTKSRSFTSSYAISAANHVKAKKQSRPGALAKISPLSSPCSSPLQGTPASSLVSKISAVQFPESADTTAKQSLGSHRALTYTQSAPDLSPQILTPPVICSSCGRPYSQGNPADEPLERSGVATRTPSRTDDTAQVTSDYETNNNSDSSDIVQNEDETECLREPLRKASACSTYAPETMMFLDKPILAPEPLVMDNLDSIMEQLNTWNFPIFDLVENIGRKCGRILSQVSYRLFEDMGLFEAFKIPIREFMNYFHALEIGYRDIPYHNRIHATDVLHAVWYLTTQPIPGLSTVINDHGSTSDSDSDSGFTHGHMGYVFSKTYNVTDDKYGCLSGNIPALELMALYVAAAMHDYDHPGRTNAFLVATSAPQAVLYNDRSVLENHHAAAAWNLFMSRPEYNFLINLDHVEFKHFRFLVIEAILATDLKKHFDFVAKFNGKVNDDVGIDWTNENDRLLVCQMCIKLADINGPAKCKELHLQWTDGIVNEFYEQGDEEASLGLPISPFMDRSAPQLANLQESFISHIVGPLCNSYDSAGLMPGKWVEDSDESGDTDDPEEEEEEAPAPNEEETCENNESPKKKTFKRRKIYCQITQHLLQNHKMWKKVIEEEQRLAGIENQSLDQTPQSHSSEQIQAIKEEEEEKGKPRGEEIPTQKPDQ

We go through two molecules from BindingDB's records for patent US20250382308 (Nuevolution, 2025).

SMILES strings stand for the structures.

As a reminder, the Kd is the free concentration of one partner at which half of the binding sites on the other are occupied at equilibrium, for simple one-to-one binding. High values mean a looser complex, low ones a tighter complex. With `COc1cc(NC(=O)c2cc3c(nc2N2CCC(F)(F)C2)COC3)cc2c(C)cc(=O)[nH]c12` [US20250382308, Example 16], the results for the Kd in experiment [1] and in experiment [2] were 0.9 µM and 0.021 µM, respectively.
The term IC50 denotes the concentration needed to halve the response being measured. Lower therefore signals greater potency. For `CCN(CC)c1nc2c(cc1C(=O)Nc1cc(OC)c3[nH]c(=O)cc(C)c3c1)COC2` [US20250382308, Example 27], the Kd in experiment [1] was 0.6 µM; in experiment [2], 0.025 µM. The molecule also returned an IC50 in experiment [3] of over 10 µM.
